Format in all cases: cell-based
In one experiment the target is T1, human TLR9 (Homo sapiens, UniProt Q9NR96).
T1 construct: host or cells: HEK-Blue cells
T1 sequence (Q9NR96 26-1032): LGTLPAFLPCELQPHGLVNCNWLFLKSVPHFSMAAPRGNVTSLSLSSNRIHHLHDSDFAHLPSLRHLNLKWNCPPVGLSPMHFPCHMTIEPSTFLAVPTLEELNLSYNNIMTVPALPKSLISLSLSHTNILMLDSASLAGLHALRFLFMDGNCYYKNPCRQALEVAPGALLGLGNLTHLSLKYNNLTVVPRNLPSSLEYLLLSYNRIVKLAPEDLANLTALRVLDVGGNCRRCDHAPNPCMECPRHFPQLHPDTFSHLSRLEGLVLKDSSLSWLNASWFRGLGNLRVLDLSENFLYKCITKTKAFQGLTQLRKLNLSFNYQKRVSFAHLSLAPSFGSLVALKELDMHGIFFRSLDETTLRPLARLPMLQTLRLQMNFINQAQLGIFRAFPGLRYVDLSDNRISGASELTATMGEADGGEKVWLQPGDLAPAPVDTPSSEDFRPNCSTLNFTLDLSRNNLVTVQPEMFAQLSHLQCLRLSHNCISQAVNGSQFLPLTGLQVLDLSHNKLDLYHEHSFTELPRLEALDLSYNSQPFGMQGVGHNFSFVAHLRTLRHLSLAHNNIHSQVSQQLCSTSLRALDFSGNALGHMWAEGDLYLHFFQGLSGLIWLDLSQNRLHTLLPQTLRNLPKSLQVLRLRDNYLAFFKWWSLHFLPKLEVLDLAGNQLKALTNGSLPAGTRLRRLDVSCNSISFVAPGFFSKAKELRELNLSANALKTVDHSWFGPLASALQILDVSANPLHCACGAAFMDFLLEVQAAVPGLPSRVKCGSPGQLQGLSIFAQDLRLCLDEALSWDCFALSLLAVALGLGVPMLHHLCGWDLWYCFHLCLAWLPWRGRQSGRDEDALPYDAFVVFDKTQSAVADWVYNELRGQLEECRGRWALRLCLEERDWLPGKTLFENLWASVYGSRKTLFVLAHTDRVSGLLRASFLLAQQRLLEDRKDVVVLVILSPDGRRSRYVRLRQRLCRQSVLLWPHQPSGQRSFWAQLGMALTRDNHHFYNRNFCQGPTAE
The experiment in a line: TLR9 inhibition reporter assay (HEK-Blue cells, SEAP reporter, ODN2006 stimulation). To be noted: HEK-Blue cells overexpressing human TLR9, SEAP reporter, ODN2006 5 nM. In a few lines:
(§1)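 Compound treatment: 30 min, RT, 0.05 nM–50 μM final. Agonist: TLR7 gardiquimod 7.5 μM; TLR8 R848 15.9 μM; TLR9 ODN2006 5 nM. Incubation 22 h, 37 °C, 5% CO2. Readout SEAP, HEK-Blue Detection.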

The next experiment has as its target T2, human TLR8 (Homo sapiens, UniProt Q9NR97).
T2 construct: host or cells: HEK-Blue cells
T2 sequence (Q9NR97 27-1041): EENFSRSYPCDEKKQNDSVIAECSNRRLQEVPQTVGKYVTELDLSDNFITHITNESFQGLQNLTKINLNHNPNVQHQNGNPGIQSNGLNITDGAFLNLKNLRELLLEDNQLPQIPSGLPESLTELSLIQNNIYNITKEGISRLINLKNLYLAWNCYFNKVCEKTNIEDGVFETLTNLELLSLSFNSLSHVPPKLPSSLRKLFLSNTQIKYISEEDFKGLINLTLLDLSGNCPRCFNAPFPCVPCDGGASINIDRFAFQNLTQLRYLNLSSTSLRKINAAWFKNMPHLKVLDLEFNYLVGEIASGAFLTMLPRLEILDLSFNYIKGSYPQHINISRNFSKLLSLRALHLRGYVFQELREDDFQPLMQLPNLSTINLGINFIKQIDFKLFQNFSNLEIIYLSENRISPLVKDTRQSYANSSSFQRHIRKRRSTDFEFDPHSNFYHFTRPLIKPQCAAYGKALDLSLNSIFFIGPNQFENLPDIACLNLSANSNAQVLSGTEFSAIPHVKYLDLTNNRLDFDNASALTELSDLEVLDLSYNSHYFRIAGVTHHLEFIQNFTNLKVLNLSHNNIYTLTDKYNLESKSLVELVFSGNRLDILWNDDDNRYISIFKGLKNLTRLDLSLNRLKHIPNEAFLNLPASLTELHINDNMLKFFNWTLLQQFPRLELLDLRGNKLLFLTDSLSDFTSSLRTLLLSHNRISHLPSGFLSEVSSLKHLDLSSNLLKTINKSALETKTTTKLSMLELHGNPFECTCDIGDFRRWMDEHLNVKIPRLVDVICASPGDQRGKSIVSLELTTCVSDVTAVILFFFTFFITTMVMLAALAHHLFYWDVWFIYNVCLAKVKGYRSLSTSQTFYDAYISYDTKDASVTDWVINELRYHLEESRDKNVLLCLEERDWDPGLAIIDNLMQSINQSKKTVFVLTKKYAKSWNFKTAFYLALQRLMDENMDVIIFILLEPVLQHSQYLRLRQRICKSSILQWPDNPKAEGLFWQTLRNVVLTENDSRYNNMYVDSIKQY
The experiment in a line: TLR8 inhibition reporter assay (HEK-Blue cells, SEAP reporter, R848 stimulation). Conditions: HEK-Blue cells overexpressing human TLR8, SEAP reporter, R848 15.9 μM; read-out: TLR8 IC50. In a few lines:
as §1
For orientation: A reporter such as luciferase makes a cellular process visible.

In a further experiment the target is T3, human TLR7 (Homo sapiens, UniProt Q9NYK1).
T3 construct: host or cells: HEK-Blue cells
T3 sequence (Q9NYK1 27-1049): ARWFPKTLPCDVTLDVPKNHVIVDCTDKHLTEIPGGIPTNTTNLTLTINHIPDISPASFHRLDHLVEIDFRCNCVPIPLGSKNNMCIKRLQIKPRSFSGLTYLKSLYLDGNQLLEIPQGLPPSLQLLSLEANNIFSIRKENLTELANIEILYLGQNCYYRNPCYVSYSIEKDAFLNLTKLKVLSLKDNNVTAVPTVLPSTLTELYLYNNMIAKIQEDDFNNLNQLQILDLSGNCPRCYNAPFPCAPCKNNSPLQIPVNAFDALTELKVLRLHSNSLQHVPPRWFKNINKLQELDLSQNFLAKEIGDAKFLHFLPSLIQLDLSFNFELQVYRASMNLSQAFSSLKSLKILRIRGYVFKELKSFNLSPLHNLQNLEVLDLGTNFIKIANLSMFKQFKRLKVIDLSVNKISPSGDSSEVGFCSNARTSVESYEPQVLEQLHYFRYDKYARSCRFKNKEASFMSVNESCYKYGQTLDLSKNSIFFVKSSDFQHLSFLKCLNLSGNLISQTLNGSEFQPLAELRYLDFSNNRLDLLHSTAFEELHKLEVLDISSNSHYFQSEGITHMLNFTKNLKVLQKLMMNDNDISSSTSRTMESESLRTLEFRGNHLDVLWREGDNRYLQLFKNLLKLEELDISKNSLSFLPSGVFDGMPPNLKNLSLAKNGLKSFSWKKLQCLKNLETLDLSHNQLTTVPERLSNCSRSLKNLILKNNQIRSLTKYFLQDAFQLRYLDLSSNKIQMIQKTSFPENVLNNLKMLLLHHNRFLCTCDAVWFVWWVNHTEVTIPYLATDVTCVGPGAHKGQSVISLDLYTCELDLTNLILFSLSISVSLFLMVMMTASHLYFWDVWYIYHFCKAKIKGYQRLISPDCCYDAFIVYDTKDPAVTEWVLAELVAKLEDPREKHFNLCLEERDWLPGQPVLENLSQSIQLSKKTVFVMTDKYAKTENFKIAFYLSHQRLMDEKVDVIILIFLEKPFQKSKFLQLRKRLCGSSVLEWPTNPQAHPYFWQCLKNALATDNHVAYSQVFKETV
The experiment in a line: TLR7 inhibition reporter assay (HEK-Blue cells, SEAP reporter, gardiquimod stimulation). To be noted: HEK-Blue cells overexpressing human TLR7, SEAP reporter, gardiquimod 7.5 μM; read-out: TLR7 IC50. In short, it runs like this:
as §1

Where only a bound is given, the exact number is not on record here.

For orientation: IC50 means the concentration that gives 50% inhibition. For the molecule `Cc1c(-c2[nH]c3sc(C4CCC(N5CCNC(=O)C5)CC4)nc3c2C(C)C)cn(C)c(=O)c1C` (single isomer, unassigned) [Example 260, 4-(4-(6-isopropyl-5-(1,4,5-trimethyl-6-oxo-1,6-dihydropyridin-3-yl)-4H-pyrrolo[3,2-d]thiazol-2-yl)cyclohexyl)piperazin-2-one], the IC50 against human TLR9 is greater than 50 µM; on human TLR8 it was 0.138 µM; at human TLR7, 0.17 µM.
With `Cc1c(-c2[nH]c3sc(C4CCC(N(C)C(C)C)CC4)nc3c2C(C)C)cn(C)c(=O)c1C` (single isomer, unassigned) [Example 261, 5-(6-isopropyl-2-(4-(isopropyl(methyl)amino)cyclohexyl)-4H-pyrrolo[3,2-d]thiazol-5-yl)-1,3,4-trimethylpyridin-2(1H)-one], the IC50 against human TLR9 turned out to be 17.1 µM; at human TLR8, 0.00226 µM; on human TLR7, 0.00843 µM.
Turning to `Cc1c(-c2[nH]c3sc(C4CCC(N(C)C(C)C)CC4)nc3c2C(C)C)cn(C)c(=O)c1C` (single isomer, unassigned) [Example 262, 5-(6-isopropyl-2-(4-(isopropyl(methyl)amino)cyclohexyl)-4H-pyrrolo[3,2-d]thiazol-5-yl)-1,3,4-trimethylpyridin-2(1H)-one], the IC50 is 18.3 µM against human TLR9, 0.0175 µM at human TLR8 and 0.0238 µM at human TLR7.
As for `Cc1c(-c2[nH]c3sc(C4CCC(N5CC(O)C5)CC4)nc3c2C(C)C)cn(C)c(=O)c1C` (single isomer, unassigned) [Example 263, 5-(2-(4-(3-hydroxyazetidin-1-yl)cyclohexyl)-6-isopropyl-4H-pyrrolo[3,2-d]thiazol-5-yl)-1,3,4-trimethylpyridin-2(1H)-one], the IC50 at human TLR9 worked out at 18.1 µM; at human TLR8, 0.00448 µM; on human TLR7 it was 0.00474 µM.
For `Cc1c(-c2[nH]c3sc(C4CCC(N5CC(O)C5)CC4)nc3c2C(C)C)cn(C)c(=O)c1C` (single isomer, unassigned) [Example 264, 5-(2-(4-(3-hydroxyazetidin-1-yl)cyclohexyl)-6-isopropyl-4H-pyrrolo[3,2-d]thiazol-5-yl)-1,3,4-trimethylpyridin-2(1H)-one], the IC50 amounted to 22 µM on human TLR9, 0.0229 µM on human TLR8 and 0.0268 µM at human TLR7.
Regarding `Cc1c(-c2[nH]c3sc(C4CCC(N5CC(F)C5)CC4)nc3c2C(C)C)cn(C)c(=O)c1C` (single isomer, unassigned) [Example 265, 5-(2-(4-(3-fluoroazetidin-1-yl)cyclohexyl)-6-isopropyl-4H-pyrrolo[3,2-d]thiazol-5-yl)-1,3,4-trimethylpyridin-2(1H)-one], the IC50 turned out to be 47.7 µM against human TLR9, 0.00329 µM at human TLR8 and 0.014 µM on human TLR7.
For `Cc1c(-c2[nH]c3sc(C4CCC(N5CC(F)C5)CC4)nc3c2C(C)C)cn(C)c(=O)c1C` (single isomer, unassigned) [Example 266, 5-(2-(4-(3-fluoroazetidin-1-yl)cyclohexyl)-6-isopropyl-4H-pyrrolo[3,2-d]thiazol-5-yl)-1,3,4-trimethylpyridin-2(1H)-one] the same measures were greater than 50 µM, 0.0602 µM and 0.119 µM.
For the molecule `Cc1c(-c2[nH]c3sc(C4CCC(N5CC(O)(C(F)(F)F)C5)CC4)nc3c2C(C)C)cn(C)c(=O)c1C` (single isomer, unassigned) [Example 267, 5-(2-(4-(3-hydroxy-3-(trifluoromethyl)azetidin-1-yl)cyclohexyl)-6-isopropyl-4H-pyrrolo[3,2-d]thiazol-5-yl)-1,3,4-trimethylpyridin-2(1H)-one], the half-maximal inhibitory concentration (IC50) against human TLR9 was greater than 50 µM; on human TLR8, 0.00716 µM; at human TLR7, 0.0243 µM.
Turning to `Cc1c(-c2[nH]c3sc(C4CCC(N5CC(O)(C(F)(F)F)C5)CC4)nc3c2C(C)C)cn(C)c(=O)c1C` (single isomer, unassigned) [Example 268, 5-(2-(4-(3-hydroxy-3-(trifluoromethyl)azetidin-1-yl)cyclohexyl)-6-isopropyl-4H-pyrrolo[3,2-d]thiazol-5-yl)-1,3,4-trimethylpyridin-2(1H)-one], the IC50 is greater than 50 µM on human TLR9, 0.0651 µM on human TLR8 and 0.0411 µM at human TLR7.
Turning to `CCc1c(-c2cc(OC)c3ncnn3c2)[nH]c2sc(C3CCC(N4CC5(COC5)C4)CC3)nc12` (single isomer, unassigned) [Example 269, 6-(4-(6-ethyl-5-(8-methoxy-[1,2,4]triazolo[1,5-a]pyridin-6-yl)-4H-pyrrolo[3,2-d]thiazol-2-yl)cyclohexyl)-2-oxa-6-azaspiro[3.3]heptane], the IC50 against human TLR9 amounted to 6.28 µM; at human TLR8 it was 0.00255 µM; at human TLR7, 0.00431 µM.
